Our source for the MIC and ED50 values is US5607926A, “Cephalosporin antibiotics” (Microcide Pharmaceuticals, Inc., priority 1995, dated 1997).

Converted amounts (≈) assume the structure as drawn. Where two headings read alike, the source gives them in different places. Bounds are passed on as bounds.

One experiment deals with E. faecalis ATCC 29212. Briefly: In vitro antibacterial evaluation, MIC by agar dilution, E. faecalis ATCC 29212. In kind it is cell-based. The note with it: Enterococcus faecalis, ATCC29212; E. faecalis ATCC 29212; read-out: MIC. The method in brief: (§1)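 In this standardized agar dilution format, compound was dissolved in PBS pH 7.2, with Tween 20 or DMSO as needed, and mixed into molten Mueller-Hinton agar to final levels of 128 down to ≤0.25 μg/mL. About 10^4 cfu were spotted per isolate, and MIC was recorded after 16-20 h at 35°-36° C.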
In general terms: In agar dilution the substance is mixed into plates at graded concentrations.

The test system of the next experiment is E. faecium ATCC 35667. Briefly: In vitro antibacterial evaluation, MIC by agar dilution, E. faecium ATCC 35667. In kind it is cell-based. The note with it: Enterococcus faecium, ATCC35667, read-out: MIC. Summed up: as §1
The test system of experiment [1] is S. aureus Col8A (Meth^S)(lac^-). Kind of experiment: In vitro antibacterial evaluation, MIC by agar dilution, S. aureus Col8A. The class given is cell-based. The note with it: Staphylococcus aureus. The method in brief:
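Log-phase isolates were spot-inoculated at about 10^4 cfu onto Mueller-Hinton agar carrying duplicate two-fold compound levels, 128 μg/mL to ≤0.25 μg/mL, following NCCLS (1991). Plates were read after 16-20 h at 35°-36° C. The lowest growth-inhibiting concentration gave the MIC (μg/ml).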

In a further experiment the test system is S. haemolyticus (Meth^R). Briefly: In vitro antibacterial evaluation, MIC by agar dilution, S. haemolyticus. The class given is cell-based. The note with it: Staphylococcus haemolyticus, read-out: MIC. The method in brief:
as §1

The test system of the next experiment is S. aureus ATCC 25923. Briefly: In vitro antibacterial evaluation, MIC by agar dilution, S. aureus ATCC 25923. In kind it is cell-based. The note with it: Staphylococcus aureus, ATCC25923. The method in brief:
as §1

For experiment [2], the system named is methicillinsusceptible S. aureus strain ATCC 13709. Briefly: In vivo antibacterial evaluation, murine model for lethal bacteremic peritonitis. More on the design: species or system S. aureus in female Swiss-Webster mice. The note with it: Staphylococcus aureus, ATCC13709, sc, 72 h, two equal SC doses at challenge and 2 hours later, mice, probit, read-out: ED50. Summed up:
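Female Swiss-Webster mice received IP an LD100 bacterial titer in 7% hog gastric mucin, then two equal subcutaneous doses (at challenge and 2 h later) of two-fold increments of drug, range 0.01–512 mg/kg. Survival scored at 72 h; PD50 (total mg/kg) by probit, groups of 10.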

In experiment [3] the test system is S. aureus 76 (Meth^R)(lac^+). Kind of experiment: In vitro antibacterial evaluation, MIC by agar dilution, S. aureus 76. In kind it is cell-based. The note with it: Staphylococcus aureus, read-out: MIC. Summed up:
as §1

Experiment [4] deals with methicillinsusceptible S. aureus strain ATCC 13709. Briefly: Challenge strain MIC. The class given is cell-based. The note with it: Staphylococcus aureus, ATCC13709, S. aureus ATCC 13709; read-out: Challenge str MIC. The method in brief: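 MIC was found by agar dilution to NCCLS standards: two-fold compound dilutions from 128 μg/mL through ≤0.25 μg/mL in Mueller-Hinton agar, each level in duplicate. Log-phase inocula of about 10^4 cfu per spot were applied. Plates were incubated 16-20 h at 35°-36° C, and the MIC was the lowest concentration inhibiting growth.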

A further experiment relates to P. aeruginosa ATCC 27853. Kind of experiment: In vitro antibacterial evaluation, MIC by agar dilution, P. aeruginosa ATCC 27853. In kind it is cell-based. The note with it: Pseudomonas aeruginosa, ATCC27853, read-out: MIC. The method in brief:
as §1

The subject of the next experiment is E. coli ATCC 25922. Kind of experiment: In vitro antibacterial evaluation, MIC by agar dilution, E. coli ATCC 25922. The class given is cell-based. The note with it: Escherichia coli, ATCC25922, read-out: MIC. Summed up: as §1
For experiment [5], the system named is S. epidermidis ATCC 31432. Briefly: In vitro antibacterial evaluation, MIC by agar dilution, S. epidermidis ATCC 31432. In kind it is cell-based. The note with it: Staphylococcus epidermidis, ATCC31432. Summed up:
as §1

For another experiment, the system named is S. aureus ATCC 29213. Briefly: In vitro antibacterial evaluation, MIC by agar dilution, S. aureus ATCC 29213. The class given is cell-based. The note with it: Staphylococcus aureus, ATCC29213; S. aureus ATCC 29213; read-out: MIC. The method in brief:
as §1

By MIC is commonly meant the smallest concentration in the dilution series that meets the test's criterion for growth inhibition. The term ED50 denotes the dose that gives a 50% effect, or the effect in half of the subjects. `N#Cc1ccccc1SC1=C(C(=O)O)N2C(=O)[C@@H](NC(=O)Cc3ccccc3)[C@H]2SC1` [Cmpd 41, (7R)-7-[(Phenylacetyl)amino]-3-(2-cyanophenylthio)-3-cephem-4-carboxylic acid]: the MIC was 4 µg/mL (≈ 8.86 µM) with E. faecalis ATCC 29212; 2 µg/mL (≈ 4.43 µM) in the experiment with E. faecium ATCC 35667; under 0.25 µg/mL in [1]; 16 µg/mL (≈ 35.4 µM) with S. haemolyticus (Meth^R); under 0.25 µg/mL against S. aureus ATCC 25923; 4 µg/mL (≈ 8.86 µM) in experiment [3]. In addition, the MIC in [4] was 0.06 µg/mL (≈ 0.133 µM); in the experiment on P. aeruginosa ATCC 27853, over 32 µg/mL; in the experiment with E. coli ATCC 25922, over 32 µg/mL; in experiment [5], under 0.25 µg/mL. The ED50 in experiment [2] came out at 1.13 mg/kg.

`N#CCC(=O)N[C@@H]1C(=O)N2C(C(=O)O)=C(Sc3ccnn3-c3ccccc3)CS[C@H]12` [Cmpd 88, (7R)-7-[(Cyanoacetyl)amino]-3-(1-N-phenylpyrazol-5-ylthio)-3-cephem-4-carboxylic acid]: the MIC with E. faecalis ATCC 29212 is 4 µg/mL (≈ 9.06 µM); in the experiment with E. faecium ATCC 35667, 2 µg/mL (≈ 4.53 µM); in experiment [1] it was under 0.25 µg/mL; with S. haemolyticus (Meth^R), 16 µg/mL (≈ 36.2 µM); in the experiment on S. aureus ATCC 25923 it was under 0.25 µg/mL; in experiment [3] it was 16 µg/mL (≈ 36.2 µM). In addition, the MIC in experiment [4] is 0.25 µg/mL (≈ 0.566 µM); in the experiment with P. aeruginosa ATCC 27853 it was over 32 µg/mL; in the experiment with E. coli ATCC 25922, over 32 µg/mL; in experiment [5], under 0.25 µg/mL. The ED50 in experiment [2] amounted to 0.31 mg/kg.

As for `Nc1nc(/C(=N/OC2CCCC2)C(=O)N[C@@H]2C(=O)N3C(C(=O)O)=C(Sc4ccnn4-c4ccccc4)CS[C@H]23)cs1` [Cmpd 89, (7R)-7-[(Z)-2-(aminothiazol-4-yl)-2-(cyclopentyloxyimino)acetamido]-3-(1-N-phenylpyrazol-5-ylthio)-3-cephem-4-carboxylic acid], the MIC is 2 µg/mL (≈ 3.27 µM) in the experiment with E. faecalis ATCC 29212; 4 µg/mL (≈ 6.54 µM) in the experiment with E. faecium ATCC 35667; 0.5 µg/mL (≈ 0.817 µM) in experiment [1]; 8 µg/mL (≈ 13.1 µM) in the experiment with S. haemolyticus (Meth^R); under 0.25 µg/mL in the experiment with S. aureus ATCC 25923 (S. aureus ATCC 25923, read-out: MIC); 4 µg/mL (≈ 6.54 µM) in experiment [3]. Besides, the MIC in experiment [4] was 0.5 µg/mL (≈ 0.817 µM); with P. aeruginosa ATCC 27853, 8 µg/mL (≈ 13.1 µM); in the experiment with E. coli ATCC 25922, 2 µg/mL (≈ 3.27 µM); in [5] (S. epidermidis ATCC 31432, read-out: MIC), under 0.25 µg/mL; in the experiment with S. aureus ATCC 29213, 0.5 µg/mL (≈ 0.817 µM). In experiment [2], the ED50 is over 10 mg/kg.

For the compound `O=C(Cc1ccccc1)N[C@@H]1C(=O)N2C(C(=O)O)=C(Sc3cccnc3-c3ccccc3)CS[C@H]12` [Cmpd 81, (7R)-7-[(Phenylacetyl)amino]-3-(2-phenylpyridin-3-ylthio)-3-cephem-4-carboxylic acid], the MIC was 2 µg/mL (≈ 3.97 µM) in the experiment on E. faecalis ATCC 29212; 1 µg/mL (≈ 1.99 µM) in the experiment on E. faecium ATCC 35667; under 0.25 µg/mL in experiment [1]; 16 µg/mL (≈ 31.8 µM) in the experiment on S. haemolyticus (Meth^R); under 0.25 µg/mL with S. aureus ATCC 25923; 4 µg/mL (≈ 7.94 µM) in experiment [3]. Moreover, the MIC in experiment [4] was 0.125 µg/mL (≈ 0.248 µM); in the experiment on P. aeruginosa ATCC 27853, over 32 µg/mL; in the experiment on E. coli ATCC 25922 it was over 32 µg/mL; in [5], under 0.25 µg/mL. The ED50 in experiment [2] was determined as 8.46 mg/kg.
